Experimental data from patent US11066414B2, “Cot modulators and methods of use thereof” (Gilead Sciences, Inc., priority 2015, dated 2021).

What was measured:
Human Cot = Human Cot (Homo sapiens (Human), UniProt P41279); experiment: High Throughput Cot Biochemical Assay; details: IC50 HTRF, Cot HTRF (TR-FRET) biochemical assay
TNFα = experiment: Cot Monocyte TNFα Cell Based Assay; details: Homo sapiens, Monocyte, read-out: EC50 TNF, LPS-stimulated human monocytes, TNFα

Human Cot, sequence (P41279 30-397): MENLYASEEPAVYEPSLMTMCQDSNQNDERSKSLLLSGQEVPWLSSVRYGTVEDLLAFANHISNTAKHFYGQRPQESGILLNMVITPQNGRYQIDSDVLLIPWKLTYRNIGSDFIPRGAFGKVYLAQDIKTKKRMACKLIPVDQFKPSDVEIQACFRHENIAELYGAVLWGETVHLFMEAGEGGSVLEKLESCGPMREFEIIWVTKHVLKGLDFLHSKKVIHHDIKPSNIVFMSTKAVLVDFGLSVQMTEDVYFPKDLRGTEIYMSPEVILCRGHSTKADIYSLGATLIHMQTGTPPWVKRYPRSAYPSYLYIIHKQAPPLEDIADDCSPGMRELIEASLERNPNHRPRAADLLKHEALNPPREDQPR

Structure (SMILES) | IC50 (Human Cot) | EC50 (TNFα)
CC(C)(C)CNc1c(C#N)cnc2c(C#N)cc(N[C@H](c3cn(C4(C(F)(F)F)CC4)nn3)c3cccc4ncccc34)cc12 [Example 469, (S)-4-(neopentylamino)-6-((quinolin-5-yl(1-(1-(trifluoromethyl)-cyclopropyl)-1H-1,2,3-triazol-4-yl)methyl)amino)quinoline-3,8-dicarbonitrile] | 4 nM | 69 nM
CC(C)(C)CNc1c(C#N)cnc2c(C#N)cc(N[C@H](c3cn(C4(C(F)(F)F)CC4)nn3)c3cccc4[nH]ncc34)cc12 [Example 472, (S)-6-(((1H-indazol-4-yl)(1-(1-(trifluoro-methyl)cyclopropyl)-1H-1,2,3-triazol-4-yl)methyl)amino)-4-(neopentylamino)-quinoline-3,8-dicarbonitrile] | 4 nM | 78 nM
CC1(C)COCC[C@@H]1Nc1c(C#N)cnc2c(C#N)cc(N[C@H](c3cn(C4(C(F)(F)F)CC4)nn3)c3cccc4ncsc34)cc12 [Example 475, 6-(((S)-benzo[d]thiazol-7-yl(1-(1-(trifluoromethyl)cyclopropyl)-1H-1,2,3-triazol-4-yl)methyl)amino)-4-(((S)-3,3-dimethyltetrahydro-2H-pyran-4-yl)amino)quinoline-3,8-dicarbonitrile] | 20 nM | 258 nM
Cc1nc(F)ccc1[C@H](Nc1cc(Cl)c2ncc(C#N)c(NCC(C)(C)C)c2c1)c1cn(C2(C#N)CCC2)nn1 [Example 479, (S)-8-chloro-6-(((1-(1-cyanocyclobutyl)-1H-1,2,3-triazol-4-yl)(6-fluoro-2-methylpyridin-3-yl)methyl)amino)-4-(neopentylamino)quinoline-3-carbonitrile] | 5 nM | 78 nM
CC(C)(C)CNc1c(C#N)cnc2c(F)cc(N[C@H](c3cn(C4(C(N)=O)CCC4)nn3)c3cccc4ncsc34)cc12 [Example 481, (S)-1-(4-(benzo[d]thiazol-7-yl((3-cyano-8-fluoro-4-(neopentylamino)quinolin-6-yl)-amino)methyl)-1H-1,2,3-triazol-1-yl)cyclobutane-1-carboxamide] | 6 nM | 391 nM
Cn1cnc2cccc([C@H](Nc3cc(Cl)c4ncc(C#N)c(NCC(C)(C)C)c4c3)c3cn(C4(C(F)(F)F)CC4)nn3)c21 [Example 483, (S)-8-chloro-6-(((1-methyl-1H-benzo[d]imidazol-7-yl)(1-(1-(trifluoromethyl)cyclopropyl)-1H-1,2,3-triazol-4-yl)methyl)amino)-4-(neopentylamino)quinoline-3-carbonitrile] | 7 nM | 108 nM
Cc1nc(F)ccc1[C@H](Nc1cc(F)c2ncc(C#N)c(NCC(C)(C)C)c2c1)c1cn(C2(C(N)=O)CC2)nn1 [Example 486, (S)-1-(4-(((3-cyano-8-fluoro-4-(neopentyl-amino)quinolin-6-yl)amino)(6-fluoro-2-methylpyridin-3-yl)methyl)-1H-1,2,3-triazol-1-yl)cyclopropane-1-carboxamide] | 3 nM | 991 nM

Further lines, results first:

IC50 (Human Cot) | EC50 (TNFα) | Structure (SMILES)
1 nM | 18 nM | CC(C)(C)CNc1c(C#N)cnc2c(C#N)cc(N[C@H](c3cn(C4CC4)nn3)c3cccc4cnccc34)cc12 [Example 468, (S)-6-(((1-cyclopropyl-1H-1,2,3-triazol-4-yl)(isoquinolin-5-yl)methyl)amino)-4-(neopentylamino)quinoline-3,8-dicarbonitrile]
2 nM | 46 nM | CC(C)(C)CNc1c(C#N)cnc2c(C#N)cc(N[C@H](c3cn(C4(C(F)(F)F)CC4)nn3)c3cccc4cnccc34)cc12 [Example 470, (S)-6-((isoquinolin-5-yl(1-(1-(trifluoromethyl)cyclopropyl)-1H-1,2,3-triazol-4-yl)methyl)amino)-4-(neopentylamino)quinoline-3,8-dicarbonitrile]
3 nM | 45 nM | Cc1nc(F)ccc1[C@H](Nc1cc(C#N)c2ncc(C#N)c(NCC(C)(C)C)c2c1)c1cn(C2(C(F)(F)F)CC2)nn1 [Example 471, (S)-6-(((6-fluoro-2-methylpyridin-3-yl)(1-(1-(trifluoromethyl)cyclopropyl)-1H-1,2,3-triazol-4-yl)methyl)amino)-4-(neopentyl-amino)quinoline-3,8-dicarbonitrile]
2 nM | 26 nM | Cc1nc(F)ccc1[C@H](Nc1cc(C#N)c2ncc(C#N)c(NCC(C)(C)C)c2c1)c1cn(C2(C(F)F)CC2)nn1 [Example 473, (S)-6-(((1-(1-(difluoromethyl)cyclopropyl)-1H-1,2,3-triazol-4-yl)(6-fluoro-2-methylpyridin-3-yl)methyl)amino)-4-(neopentylamino)quinoline-3,8-dicarbonitrile]
2 nM | 26 nM | CC1(C)COCC[C@H]1Nc1c(C#N)cnc2c(C#N)cc(N[C@H](c3cn(C4(C(F)(F)F)CC4)nn3)c3cccc4ncsc34)cc12 [Example 474, 6-(((S)-benzo[d]thiazol-7-yl(1-(1-(trifluoromethyl)cyclopropyl)-1H-1,2,3-triazol-4-yl)methyl)amino)-4-(((R)-3,3-dimethyltetrahydro-2H-pyran-4-yl)amino)quinoline-3,8-dicarbonitrile]
2 nM | 185 nM | Cc1nc(F)ccc1[C@H](Nc1cc(Cl)c2ncc(C#N)c(NCC(C)(C)C)c2c1)c1cn(C2(C(N)=O)CC2)nn1 [Example 477, (S)-1-(4-(((8-chloro-3-cyano-4-(neopentylamino)quinolin-6-yl)amino)(6-fluoro-2-methylpyridin-3-yl)methyl)-1H-1,2,3-triazol-1-yl)cyclopropane-1-carboxamide]
2 nM | 60 nM | Cc1nc(F)ccc1[C@H](Nc1cc(Cl)c2ncc(C#N)c(NCC(C)(C)C)c2c1)c1cn(C2(C)CC2)nn1 [Example 480, (S)-8-chloro-6-(((6-fluoro-2-methylpyridin-3-yl)(1-(1-methylcyclopropyl)-1H-1,2,3-triazol-4-yl)methyl)amino)-4-(neopentylamino)-quinoline-3-carbonitrile]
3 nM | 86 nM | Cc1nc(F)ccc1[C@H](Nc1cc(Cl)c2ncc(C#N)c(NCC(C)(C)C)c2c1)c1cn(C2(CO)CC2)nn1 [Example 482, (S)-8-chloro-6-(((6-fluoro-2-methylpyridin-3-yl)(1-(1-(hydroxymethyl)cyclopropyl)-1H-1,2,3-triazol-4-yl)methyl)amino)-4-(neopentylamino)quinoline-3-carbonitrile]
3 nM | 73 nM | Cn1cnc2cccc([C@H](Nc3cc(C#N)c4ncc(C#N)c(NCC(C)(C)C)c4c3)c3cn(C4(C(F)(F)F)CC4)nn3)c21 [Example 484, (S)-6-(((1-methyl-1H-benzo[d]imidazol-7-yl)(1-(1-(trifluoromethyl)cyclopropyl)-1H-1,2,3-triazol-4-yl)methyl)amino)-4-(neopentylamino)quinoline-3,8-dicarbonitrile]
1 nM | 245 nM | Cc1nc(F)ccc1[C@H](Nc1cc(F)c2ncc(C#N)c(NCC(C)(C)C)c2c1)c1cn(C2(C(N)=O)CCC2)nn1 [Example 487, (S)-1-(4-(((3-cyano-8-fluoro-4-(neopentyl-amino)quinolin-6-yl)amino)(6-fluoro-2-methylpyridin-3-yl)methyl)-1H-1,2,3-triazol-1-yl)cyclobutane-1-carboxamide]
